Laboratory results published in PubChem BioAssay (NCI).
Where “and” joins values, the source holds several entries; their conditions need not be identical. Equal entries are not always repeated.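 The compound was tested at five concentrations on cells cultured in 96-well plates, with a 48-hour exposure period. Abbreviation: GI50, concentration required for 50% inhibition of growth. TGI is the concentration that stops growth completely.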

Assays:
Experiment in all cases: NCI-60 cell line screen, 48 h
[1] = test system: DU-145 prostate
[2] = test system: BT-549 breast
[3] = test system: SK-MEL-5 melanoma
[4] = test system: A549 NSCLC
[5] = test system: KM12 colon
[6] = test system: OVCAR-5 ovarian
[7] = test system: HCC-2998 colon
[8] = test system: SF-295 CNS
[9] = test system: SK-MEL-2 melanoma
[10] = test system: HT29 colon
[11] = test system: SK-MEL-28 melanoma
[12] = test system: HL-60(TB) leukemia
[13] = test system: HOP-62 NSCLC
[14] = test system: U251 CNS
[15] = test system: MDA-MB-231 breast
[16] = test system: PC-3 prostate
[17] = test system: CAKI-1 renal
[18] = test system: ACHN renal
[19] = test system: UO-31 renal
[20] = test system: NCI/ADR-RES ovarian
[21] = test system: TK-10 renal
[22] = test system: HCT-116 colon
[23] = test system: NCI-H226 lung
[24] = test system: A498 renal
[25] = test system: SNB-75 CNS
[26] = test system: SK-OV-3 ovarian
[27] = test system: OVCAR-4 ovarian
[28] = test system: MALME-3M melanoma
[29] = test system: T-47D breast
[30] = test system: MDA-MB-435
[31] = test system: SNB-19 CNS
[32] = test system: K-562 leukemia
[33] = test system: HCT-15 colon
[34] = test system: COLO 205 colon
[35] = test system: OVCAR-3 ovarian
[36] = test system: EKVX NSCLC
[37] = test system: IGROV1 ovarian
[38] = test system: NCI-H23 lung
[39] = test system: MCF7 breast
[40] = test system: RXF 393 renal
[41] = test system: CCRF-CEM leukemia
[42] = test system: HOP-92 NSCLC
[43] = test system: SF-539 CNS
[44] = test system: SR leukemia
[45] = test system: NCI-H522 lung
[46] = test system: MOLT-4 leukemia
[47] = test system: SF-268 CNS
[48] = test system: UACC-62 melanoma
[49] = test system: UACC-257 melanoma
[50] = test system: OVCAR-8 ovarian
[51] = test system: SW-620 colon
[52] = test system: RPMI-8226 leukemia
[53] = test system: SN12C renal
[54] = test system: 786-0 renal
[55] = test system: NCI-H460 lung
[56] = test system: M14 melanoma
[57] = test system: HS 578T breast
[58] = test system: LOX IMVI melanoma

## COc1ccccc1S(=O)(=O)Nc1ccc2c(c1)CN(C)C(=O)N2
[1]
  GI50: 67.4 µM and 33.1 µM
  TGI: > 100 µM
[2]
  GI50: 9.98 µM and 26.3 µM
  TGI: > 100 µM
[3]
  GI50: 3.88 µM and 4.42 µM
  TGI: > 100 µM
[4]
  GI50: 9.07 µM and 22.2 µM
  TGI: > 100 µM
[5]
  GI50: 14.6 µM and 7.41 µM
  TGI: > 100 µM
[6]
  GI50: 9.5 µM and 11.7 µM
  TGI: > 100 µM
[7]
  GI50: 6.76 µM and 9.52 µM
  TGI: > 65.1 µM and 81.5 µM
[8]
  GI50: 6.48 µM and 9.42 µM
  TGI: > 100 µM
[9]
  GI50: 6.48 µM and 29.5 µM
  TGI: > 100 µM
[10]
  GI50: 2.55 µM and 2.26 µM
  TGI: > 100 µM
[11]
  GI50: 5.62 µM and 7.41 µM
  TGI: > 100 µM
[12]
  GI50: 1.18 µM and 2.7 µM
  TGI: > 100 µM
[13]
  GI50: 4.93 µM and 4.22 µM
  TGI: > 100 µM
[14]
  GI50: 14.1 µM and 13.2 µM
  TGI: > 100 µM
[15]
  GI50: 4.28 µM and 7.34 µM
  TGI: > 100 µM
[16]
  GI50: 10.7 µM and 16.3 µM
  TGI: > 100 µM
[17]
  GI50: 0.994 µM and 3 µM
  TGI: > 100 µM
[18]
  GI50: 4.76 µM and 8.29 µM
  TGI: > 100 µM
[19]
  GI50: 1.41 µM and 1.05 µM
  TGI: > 100 µM
[20]
  GI50: 29.5 µM and 33.3 µM
  TGI: > 100 µM
[21]
  GI50: 2.14 µM and 1.45 µM
  TGI: > 95.5 µM and 50 µM
[22]
  GI50: 4.6 µM and 4.38 µM
  TGI: > 100 µM
[23]
  GI50: 9.98 µM and 16 µM
  TGI: > 100 µM
[24]
  GI50: 1.5 µM and 2.25 µM
  TGI: 22.6 µM and 10.9 µM
[25]
  GI50: 0.266 µM and 0.481 µM
[26]
  GI50: 4.47 µM and 5.15 µM
  TGI: > 100 µM
[27]
  GI50: 3.4 µM and 4.28 µM
  TGI: > 100 µM
[28]
  GI50: 4.35 µM and 1.75 µM
  TGI: > 100 µM
[29]
  GI50: 3.27 µM
  TGI: > 100 µM
[30]
  GI50: 4.24 µM and 2.63 µM
  TGI: > 100 µM
[31]
  GI50: 7.3 µM and 5.07 µM
  TGI: > 100 µM
[32]
  GI50: 8.64 µM and 5.18 µM
  TGI: > 100 µM
[33]
  GI50: 3.79 µM and 3.32 µM
  TGI: > 100 µM
[34]
  GI50: 2.61 µM and 2.8 µM
  TGI: > 100 µM
[35]
  GI50: 4.71 µM
  TGI: > 100 µM
[36]
  GI50: 20.3 µM
  TGI: > 100 µM
[37]
  GI50: 6.42 µM and 5.7 µM
  TGI: > 100 µM
[38]
  GI50: 7.03 µM and 12.8 µM
  TGI: > 100 µM
[39]
  GI50: 1.87 µM and 1.48 µM
  TGI: > 100 µM
[40]
  GI50: 4.72 µM and 5.16 µM
  TGI: 28.3 µM and > 60.2 µM
[41]
  GI50: 5.31 µM and 7.05 µM
  TGI: > 100 µM
[42]
  GI50: 2.22 µM and 1.18 µM
  TGI: > 51.9 µM and 71.6 µM
[43]
  GI50: 4.68 µM and 4.87 µM
  TGI: 99.2 µM and > 100 µM
[44]
  GI50: 2.4 µM and 3.49 µM
  TGI: > 100 µM
[45]
  GI50: 2.34 µM and 4.75 µM
  TGI: > 91.7 µM
[46]
  GI50: 11 µM and 12.7 µM
  TGI: > 100 µM
[47]
  GI50: 20 µM and 24.7 µM
  TGI: > 100 µM
[48]
  GI50: 1.26 µM and 1.12 µM
  TGI: > 100 µM
[49]
  GI50: 4.46 µM and 3.86 µM
  TGI: > 100 µM
[50]
  GI50: 10.1 µM and 10.8 µM
  TGI: > 100 µM
[51]
  GI50: 20.3 µM and 14.5 µM
  TGI: > 100 µM
[52]
  GI50: 2.16 µM and 1.89 µM
  TGI: > 100 µM
[53]
  GI50: 11 µM and 7.5 µM
  TGI: > 100 µM
[54]
  GI50: 7.79 µM and 8.82 µM
  TGI: > 100 µM
[55]
  GI50: 10.6 µM and 13.4 µM
  TGI: > 100 µM
[56]
  GI50: 3.3 µM and 4.08 µM
  TGI: > 100 µM
[57]
  GI50: 2.53 µM and 2.23 µM
  TGI: > 100 µM
[58]
  GI50: 3.3 µM and 3.45 µM
  TGI: 27.8 µM and 21.3 µM
